The values that follow come from paper PMC4863226 (Molecular imaging, 2015).

A short description of data set [1]: in vivo. The note with it: female, athymic Nu/Nu, mouse, 3.7 MBq, total radioactivity.
In data set [2] the test system is HCT-116 tumor bearing mice. Put plainly: Biodistribution. Particulars: for Bone uptake / Brain uptake / Fat uptake / Heart uptake / Kidney uptake / L lg int (lower large intestine) uptake / Liver uptake / Lung uptake / Muscle uptake / Sm int (small intestine) uptake / Spleen uptake / Stomach uptake / U lg int (upper large intestine) uptake: HCT-116 tumor bearing mice; for Bone uptake / Brain uptake / Fat uptake / Heart uptake / Kidney uptake / L lg int (lower large intestine) uptake / Liver uptake / Lung uptake / Muscle uptake / Sm int (small intestine) uptake / Spleen uptake / Stomach uptake / U lg int (upper large intestine) uptake / Tumor uptake: gamma counter; for Bone uptake / Brain uptake / Fat uptake / Heart uptake / Kidney uptake / L lg int (lower large intestine) uptake / Liver uptake / Lung uptake / Muscle uptake / Sm int (small intestine) uptake / Spleen uptake / Stomach uptake / U lg int (upper large intestine) uptake / Tumor uptake / Tumor-to-blood ratio: mean ± SD; for Tumor uptake: HCT-116 tumor xenograft; for Tumor uptake / Tumor-to-blood ratio: mice; for Tumor-to-blood ratio: HCT-116 tumor xenografts.

The mark [3] stands for this setting: Sm int (small intestine) uptake.

Where a SMILES comes first, the peptide text is derived from it. Bridges are numbered along the chain shown (N, C = ends). The star is where a group is joined. DOTA = O=C(O)CN1CCN(CC(=O)O)CCN(CC(=O)*)CCN(CC(=O)O)CC1; NOTA = O=C(O)CN1CCN(CC(=O)O)CCN(CC(=O)*)CC1; X1 = O=[N+]([O-])c1cc([N+](=O)[O-])c(*)cc1F; PEG4 = NCCOCCOCCOCCOCCC(=O)O

One may read the tissue uptake as the percentage of the injected dose found per gram of tissue. As to `CC[C@H](C)[C@@H]1NC(=O)[C@H](CC(=O)O)NC(=O)[C@@H](NC(=O)[C@H](CCC(=O)O)NC(=O)[C@H](CC(N)=O)NC(=O)CNC(=O)CNC(=O)CCOCCOCCOCCOCCNC(=O)CN2CCN(CC(=O)O)CCN(CC(=O)O)CCN(CC(=O)O)CC2)CSSC[C@@H](C(=O)N[C@@H](Cc2ccccc2)C(=O)N[C@@H](CCC(=O)O)C(=O)N[C@@H](CCCNC(=N)N)C(=O)N[C@@H](CCCCNc2cc(F)c([N+](=O)[O-])cc2[N+](=O)[O-])C(N)=O)NC(=O)[C@H](CCC(=O)O)NC(=O)[C@H](Cc2c[nH]c3ccccc23)NC(=O)[C@H](CCC(=O)O)NC(=O)[C@H](Cc2c[nH]c3ccccc23)NC(=O)[C@H](CCSC)NC(=O)[C@H](CCCNC(=N)N)NC(=O)[C@H](C)NC1=O` [^55Co-DO3A-L19K-FDNB] ({DOTA-PEG4}-GGNECDIARMWEWECFERK(X1)-NH2; disulfide 5-15), the tissue uptake at 24 h is 0.3 ± 0.04 %ID/g in data set [1] (Bone uptake); 0.4 ± 0.1 %ID/g in data set [1] (Fat uptake); 1.1 ± 0.2 %ID/g in data set [1] (Liver uptake); 0.8 ± 0.1 %ID/g in data set [1] (Lung uptake); 0.31 ± 0.04 %ID/g in data set [1] (setting [3]); 1.1 ± 0.2 %ID/g in data set [1] (Tumor uptake). Further, the tissue uptake at 48 h in data set [1] (Bone uptake) stood at 0.26 ± 0.05 %ID/g; in data set [1] (Fat uptake), 0.3 ± 0.03 %ID/g; in data set [1] (Liver uptake), 0.7 ± 0.1 %ID/g; in data set [1] (Lung uptake), 0.56 ± 0.03 %ID/g; in data set [1] (setting [3]), 0.19 ± 0.03 %ID/g; in data set [1] (Tumor uptake), 0.71 ± 0.03 %ID/g.

Take `CC[C@H](C)[C@@H]1NC(=O)[C@H](CC(=O)O)NC(=O)[C@@H](NC(=O)[C@H](CCC(=O)O)NC(=O)[C@H](CC(N)=O)NC(=O)CNC(=O)CNC(=O)CCOCCOCCOCCOCCNC(=O)CN2CCN(CC(=O)O)CCN(CC(=O)O)CC2)CSSC[C@@H](C(=O)N[C@@H](Cc2ccccc2)C(=O)N[C@@H](CCC(=O)O)C(=O)N[C@@H](CCCNC(=N)N)C(=O)N[C@@H](CCCCNc2cc(F)c([N+](=O)[O-])cc2[N+](=O)[O-])C(N)=O)NC(=O)[C@H](CCC(=O)O)NC(=O)[C@H](Cc2c[nH]c3ccccc23)NC(=O)[C@H](CCC(=O)O)NC(=O)[C@H](Cc2c[nH]c3ccccc23)NC(=O)[C@H](CCSC)NC(=O)[C@H](CCCNC(=N)N)NC(=O)[C@H](C)NC1=O` [^55Co-NO2A-L19K-FDNB] ({NOTA-PEG4}-GGNECDIARMWEWECFERK(X1)-NH2; disulfide 5-15): the tissue uptake at 24 h in data set [1] (Bone uptake) was 0.28 ± 0.04 %ID/g; in data set [1] (Fat uptake), 0.8 ± 0.4 %ID/g; in data set [1] (Liver uptake) it was 1 ± 0.1 %ID/g; in data set [1] (Lung uptake), 0.9 ± 0.1 %ID/g; in data set [1] (setting [3]), 0.26 ± 0.01 %ID/g; in data set [1] (Tumor uptake) it was 0.9 ± 0.1 %ID/g. Besides, the tissue uptake at 48 h in data set [1] (Bone uptake) was found to be 0.14 ± 0.02 %ID/g; in data set [1] (Fat uptake), 0.3 ± 0.1 %ID/g; in data set [1] (Liver uptake), 0.44 ± 0.03 %ID/g; in data set [1] (Lung uptake), 0.46 ± 0.06 %ID/g; in data set [1] (setting [3]), 0.14 ± 0.04 %ID/g; in data set [1] (Tumor uptake), 0.49 ± 0.09 %ID/g.

As for `[Cl][55Co][Cl]` [^55CoCl2], in data set [2] (2 hr p.i.), the Bone uptake was determined as 1.3 ± 0.2 %ID/g, the Brain uptake stood at 0.31 ± 0.02 %ID/g, the Fat uptake is reported as 1.5 ± 0.9 %ID/g and the Heart uptake is 4.8 ± 0.4 %ID/g. In data set [2] (2 hr p.i.), the Kidney uptake worked out at 10.5 ± 1.4 %ID/g, the “L lg int (lower large intestine) uptake” value was 1.9 ± 1.0 %ID/g, the Liver uptake was 15.7 ± 0.4 %ID/g and the Lung uptake came to 4.0 ± 0.3 %ID/g. Besides, in data set [2] (2 hr p.i.), the Muscle uptake is given as 0.6 ± 0.1 %ID/g, the “Sm int (small intestine) uptake” value worked out at 3.6 ± 0.6 %ID/g, the Spleen uptake is 1.9 ± 0.4 %ID/g and the Stomach uptake came out at 1.1 ± 0.1 %ID/g. Moreover, in data set [2] (2 hr p.i.), the “U lg int (upper large intestine) uptake” value was found to be 4.3 ± 0.8 %ID/g and the Tumor uptake worked out at 2.8 ± 0.6 %ID/g. Also, the Tumor-to-blood ratio in data set [2] (2 hrs p.i.) stood at 0.6 ± 0.1. In data set [2] (24 hr p.i., n=3), this molecule displayed a Bone uptake of 0.8 ± 0.1 %ID/g, a Brain uptake of 0.17 ± 0.03 %ID/g, a Fat uptake of 0.7 ± 0.4 %ID/g and a Heart uptake of 2.8 ± 0.7 %ID/g. Further, in data set [2] (24 hr p.i., n=3), the Kidney uptake was determined as 4.4 ± 0.4 %ID/g, the “L lg int (lower large intestine) uptake” value is on record as 2.2 ± 0.3 %ID/g, the Liver uptake is listed as 6.2 ± 0.8 %ID/g and the Lung uptake is recorded as 1.9 ± 0.1 %ID/g. In addition, in data set [2] (24 hr p.i., n=3), the Muscle uptake is 0.37 ± 0.08 %ID/g, the “Sm int (small intestine) uptake” value came out at 1.1 ± 0.2 %ID/g, the Spleen uptake stood at 0.82 ± 0.05 %ID/g and the Stomach uptake is 1.0 ± 0.2 %ID/g. In addition, in data set [2] (24 hr p.i., n=3), the “U lg int (upper large intestine) uptake” value came out at 1.5 ± 0.1 %ID/g and the Tumor uptake was 1.6 ± 0.2 %ID/g. In addition, in data set [2] (48 hr p.i., n=3), the Bone uptake worked out at 0.5 ± 0.1 %ID/g, the Brain uptake was 0.11 ± 0.01 %ID/g, the Fat uptake was found to be 0.23 ± 0.05 %ID/g and the Heart uptake came out at 1.4 ± 0.2 %ID/g. Besides, in data set [2] (48 hr p.i., n=3), the Kidney uptake was determined as 1.9 ± 0.2 %ID/g, the “L lg int (lower large intestine) uptake” value was found to be 1.2 ± 0.2 %ID/g, the Liver uptake came to 2.7 ± 0.7 %ID/g and the Lung uptake is 0.98 ± 0.09 %ID/g. In data set [2] (48 hr p.i., n=3), the Muscle uptake amounted to 0.17 ± 0.03 %ID/g, the “Sm int (small intestine) uptake” value worked out at 0.50 ± 0.04 %ID/g, the Spleen uptake is given as 0.46 ± 0.04 %ID/g and the Stomach uptake was determined as 0.5 ± 0.1 %ID/g. Also, in data set [2] (48 hr p.i., n=3), the “U lg int (upper large intestine) uptake” value was found to be 0.7 ± 0.1 %ID/g and the Tumor uptake was 0.86 ± 0.08 %ID/g. Further, the Tumor-to-blood ratio in data set [2] (48 hrs p.i., P=0.006 vs 2 hrs) amounted to 1.9 ± 0.4. In addition, in data set [2] (at 24 and 48 hrs p.i. after high uptake at 2 hrs p.i.), the “Consecutive decrease in liver and kidney uptake” value is reported as “about 2 fold”. For the same molecule, the “Increase of tumor-to-blood ratio” value in data set [2] (from 2 to 48 hrs p.i.) is listed as 3 fold.
